Data on ten compounds can be found in paper PMC2217226 (The Journal of General Physiology, 2000).

“Also recorded” adds a separate entry of the source. Read-outs that look alike come from different tables or passages of the source.

The test system of series [1] is SACs in audiovestibular hair cells. Particulars: ref Jorgensen and Ohmori 1988; cited from earlier work.
In series [2] the test system is endogenous SACs in oocytes. Particulars: ref Lane et al., 1991; cited from earlier work.
For the next series, the system named is SACs. Conditions: cited from earlier work.
In a further series the test system is epithelial Na^+ channels. Particulars: no separate reference printed; cited from earlier work.
The subject of series [3] is swelling-activated whole-cell current in adult astrocytes. In kind it is cell-based, rat.
In series [4] the test system is swelling-activated anion current in astrocytoma cells. Conditions: ref Bakhramov et al. 1995; cited from earlier work.
For series [5], the system named is SACs (cation-selective stretch-activated channels) in outside-out patches from adult rat astrocytes. Description: SAC activity in outside-out patches, pressure-activated, patch clamp. Type of series: cell-based. Background: Patch clamp records ionic current or voltage across a cell membrane.
The test system of series [6] is glutamate-stimulated K^+ influx in neonatal astrocytes. Particulars: ref Bender et al. 1998; cited from earlier work.
The subject of the next series is NMDA channel. Particulars: ref Bender et al. 1998; cited from earlier work.
The test system of series [7] is ventricular myocytes from rabbits with aortic regurgitation-induced CHF. Description: Myocyte cell volume during perforated patch voltage clamp. In kind it is cell-based, rabbit.
The subject of series [8] is normal electrical activity of the heart, rabbit. Particulars: Langendorff-perfused rabbit hearts, preliminary; ref Bode et al. 1999; cited from earlier work.
For series [9], the system named is rabbit hearts, atrial fibrillation associated with dilatation. Particulars: ref Bode et al. 1999; cited from earlier work.
Series [10] is described as follows: Overall charge of the toxin. Conditions: from the sequence. In kind it is physicochemical.
Series [11] relates to voltage-sensitive whole-cell currents of astrocytes. Description: Voltage-sensitive whole-cell currents, perforated patch. Type of series: cell-based, rat. Particulars: concentration not printed at place.
Series [12] concerns whole-cell current of rabbit CHF ventricular myocytes in 1.5T hypertonic saline. Type of series: cell-based. Particulars: 0.4 μM GsMTx-4, 1.5T hypertonic saline, averages from five cells.
The test system of series [13] is ICl,swell (outwardly rectifying Cl^− current), rabbit CHF ventricular myocytes. Kind of series: Swelling-activated anion current in CHF ventricular myocytes, perforated patch. In kind it is cell-based.
The test system of the next series is K^+ channel. Conditions: Fig. 8 legend; ref Swartz and MacKinnon 1995; cited from earlier work.
The subject of another series is E-type Ca^2+ channels. Conditions: Fig. 8 legend; ref Newcomb et al. 1998; cited from earlier work.
The mark [14] stands for this setting: introduction, ref Hamill and McBride 1996, Sachs and Morris 1998.

As for `N=C(N)NC(=O)c1nc(Cl)c(N)nc1N` [Amiloride], the “block of SACs in audiovestibular hair cells” value in series [1] is on record as “blocks”. Moreover, the “block of endogenous SACs in oocytes” value in series [2] was “blocks”. In addition, the “blocking activity against SACs” value in the series on SACs (setting [14]) was “low affinity blocking activity”. Moreover, the “affinity for epithelial Na^+ channels” value with epithelial Na^+ channels is “nanomolar affinity”.
In the case of `O=S(=O)(O)c1cc(N=C=S)ccc1C=Cc1ccc(N=C=S)cc1S(=O)(=O)O` [DIDS, 4,4′-diisothiocyanatostilbene-2,2′-disulphonic acid, reference compound], the “effect on swelling-activated current (in words)” value in [3] (50 μM DIDS, 30 s hypotonic saline, especially at depolarized potentials, n = 6) is “significant reduction in current”. For the same compound, the “reduction of swelling-activated anion current” value in series [4] is listed as “significant reduction”.
Regarding `COc1ccc([C@@H]2Sc3ccccc3N(CCN(C)C)C(=O)[C@@H]2OC(C)=O)cc1` [Diltiazem], the “blocking activity against SACs” value with SACs (setting [14]) is recorded as “low affinity blocking activity”.
Consider `N[C@@H](CCC(=O)O)C(=O)O` [Glutamate, reference compound], for which the “Activity on astrocyte SACs” value in series [5] (10 μM, n = 2 trials, outside-out patches at −50 mV) was “No activation”. In addition, in [5] (10 μM, unstretched patches that contained SACs), the “activation of SACs in unstretched patches” value is “did not activate SACs”.
In the case of `C[C@]12N[C@H](Cc3ccccc31)c1ccccc12` [MK801], the “effect on glutamate-stimulated K^+ influx” value in series [6] is on record as “inhibits glutamate-stimulated K^+ influx”. Also, the “affinity as NMDA open-channel blocker” value in the series with NMDA channel is “nanomolar affinity”.
For `COC(=O)C1=C(C)NC(C)=C(C(=O)OC)C1c1ccccc1[N+](=O)[O-]` [Nifedipine, reference compound], the “Activity on astrocyte SACs” value in series [5] is listed as “No block”.
`CC[N+](CC)(CC)CC` [tetraethylammonium]: in the series with SACs, the “blocking activity against SACs” value is “low affinity blocking activity”.
In the case of GsMTx-4, in [3] (5 μM GsMTx-4, 30 s after hypotonic exposure), the “effect on peak swelling-activated current (in words)” value is given as “significantly reduced the peak current response”. For the same compound, the “reduction in peak swelling-activated current” value in [3] (5 μM GsMTx-4, 30 s, after subtracting resting current, representative cell (Fig. 9 C)) is roughly 75%. Moreover, the “change in reversal potential of swelling-activated current” value in series [3] (5 μM GsMTx-4, statistically indistinguishable from 0 mV) is reported as “+2 mV”. Besides, in [3] (adult astrocytes, discussion), the “reduction in swelling-activated anion current” value is reported as 40–50%. For the same compound, the “reduction in swelling-activated whole-cell current” value in [3] (hypotonically swollen astrocytes, potential not printed at place) is roughly 40%. Moreover, the “recovery of swelling currents after washout” value in [3] (∼4 min after washout of 5 μM GsMTx-4) was “partially recovered”. Also, the cell volume reduction in series [7] (0.4 μM GsMTx-4, 1.0T solution, averages from five cells) came to 7%. The “cell volume after osmotic shrinkage” value in [7] (0.4 μM GsMTx-4, 1.5T solution, averages from five cells) was “unaffected”. Further, in series [7] (0.4 μM GsMTx-4, isotonic), the “cell volume reduction relative to that produced by 1.5T saline” value is given as roughly 40%. The “effect on normal electrical activity of the heart” value in [8] is given as “doesn't block normal electrical activity of the heart”. Besides, in series [5] (from data of Fig. 6, outside-out patches, −50 mV), the “I/I0 (ratio of blocked to unblocked current)” value came to 0.083. In addition, the “dissociation rate constant k d” value in series [5] (from washout time constant, n = 7 patches) amounted to 0.21 s⁻¹. Further, in series [5] (mechanism of action, closed channels), the “state dependence of block” value is recorded as “can act on closed channels”. In addition, the “block of SACs” value in [5] (outside-out patches, 1:1,000 dilution, 8 μg/ml, rapid upon superfusion) is on record as “the block was complete”. Moreover, the “suppression of cardiac arrhythmias” value in series [9] is “ability to suppress cardiac arrhythmias”. Besides, in series [10], the overall charge result was “+5”. Besides, the “activity against voltage-sensitive whole-cell currents” value in series [11] is listed as “no effect on whole-cell voltage-sensitive currents; also recorded: did not effect voltage-sensitive currents; also recorded: negligible activity”. Further, the “effect on whole-cell current” value in series [12] is reported as “unaffected; also recorded: did not affect membrane currents”. Moreover, the “effect on ICl,swell” value in series [13] (0.4 μM GsMTx-4, isotonic (1.0T), averages from five cells) is on record as “no effect”. For the same compound, the “effect on anion current” value in series [13] (rabbit dilated cardiomyopathy model, concentration not printed at place) is on record as “did not affect the anion current”.
Consider Hanatoxin, for which, in the series with K^+ channel, the “K^+ channel block” value is reported as “K^+ channel blocker”.
In the case of “SNX-482: peptide toxin that blocks E-type Ca^2+ channels (GVDKAGCRYMFGGCSVNDDCCPRLGCHSLFSYCAWDLTFSD; UniProt P56854 1-41, looked up)”, the “E-type Ca^2+ channel block” value in the series with E-type Ca^2+ channels is on record as “blocks E-type Ca^2+ channels”.
